Results taken from US20080167358A1, “Methods for Obtaining a Fast Dissolving Imidapril Powder” (priority 2005, published 2008).

Assay: Dissolution time of a quantity corresponding to 75 mg of Imidapril in 30 ml of water at room temperature
Type: physicochemical
Conditions: quantity of formulation corresponding to 75 mg of Imidapril added to 30 ml of stirred water at room temperature
Description: This crystalline condition makes it possible to obtain a quick dissolution Imidapril powder, i.e., having a total dissolution time of the powder of 30 sec for a quantity of 75 mg of Imidapril in 30 ml of water at room temperature (25° C.). […] The apparent dissolution time is noted.

Time (s) (apparent dissolution time): 420 s
Compound: CCOC(=O)[C@H](CCc1ccccc1)N[C@@H](C)C(=O)N1C(=O)N(C)C[C@H]1C(=O)O [Standard Imidapril, Imidapril]
